Assay: pKa of monomers by neutralization titration
Format: physicochemical
Details: tetrahydrofuran/water=6:4
Experimental: The pKa value of each monomer was calculated in accordance with a neutralization titration method in a system of tetrahydrofuran/water=6:4 by means of an automatic titrator COM-2500 (trade name) manufactured by Hiranuma Sangyo Co., Ltd.

Structure (SMILES) | pKa
C=C(C)C(=O)O [Methacrylic acid] | 3.98
C=C(C)C(=O)NS(C)(=O)=O [Monomer 1] | 3.96
